Measurements from patent US20170349949A1, “METHODS OF SELECTING SUBJECTS FOR TREATMENT WITH METABOLIC MODULATORS” (Partikula LLC, priority 2016, published 2017).

Columns and labels:
pyruvate dehydrogenase = conditions: highly purified pyruvate dehydrogenase, cited from earlier work
A549 cells = assay: Extracellular lactate after PDK inhibitor, with or without UK5099 pre-treatment; assay type: cell-based; conditions: 16 hrs UK5099 pre-treatment, then DCA 50 mM or KULA2 500 μM for 6 hrs
Protocol: A549 cells were pre-treated for 16 hrs with the MPC inhibitor UK5099 and then subsequently treated with the test articles for 6 hrs; extracellular lactate was then measured. Dichloroacetate (DCA) and KULA2, a dichloroacetate (DCA) analogue targeted to the mitochondria with a lipophilic triphenylphosphonium (TPP) cation moiety, were used ((Pathak R K et al., ACS Chem. Biol., 9 (5) 1178-1187 (2014), (Pathak R K et al., ACS Chem. Biol., 9 (5) 1178-1187 (2014), and WO/2015/002996). DCA is dosed at 50 mM and KULA2 is dosed at 500 μM.

HCT116 tumors = assay: KULA2 in mice harboring HCT116 tumors (MPC null); assay type: in vivo; conditions: comparator results named beside KULA2 in HCT116; dose and source not given
Protocol: CT26 is the MPC+ group. MPC levels were verified via western blotting or otherwise known (see, e.g., Schell, et al., Molecular Cell, 56:400-413 (2014)).
In both models HCT116 and CT26 the mice (between 8-10 per arm) were dosed with KULA2 via i.p. injection and vehicle, HCT116 tumors at a dose of 20 mg/kg, and CT26 tumors at a dose of 18 mg/kg. Dosing schedule in both cases was 5 days on, 2 days off for the duration of the study.
Experiments were designed to determine if MPC expression correlates with the efficacy of PDK inhibitor. A PDK inhibitor, KULA2, was administered to mice harboring HCT116 tumors (at a dose of 20 mg/kg) or CT26 tumors (at a dose of 18 mg/kg).

Row | Compound | tumor inhibition (comparators) (HCT116 tumors) | other results
1 | Cc1ncc(C[n+]2csc(CCO[P@](=O)(O)OP(=O)(O)O)c2C)c(N)n1 [TPP, thiamine pyrophosphate] | – | Km (pyruvate dehydrogenase; read-out: Km of cofactor): 110 nM
2 | N#C/C(=C\c1cn(-c2ccccc2)c2ccccc12)C(=O)O [UK5099] | – | effect of MPC inhibition on lactate reduction by PDK inhibitors (A549 cells): lowers the lactate reduction normally seen with PDK inhibitors
3 | N.N.[Cl][Pt][Cl] [cisplatin] | 22% | –
4 | Cc1ncc(C[n+]2csc(CCO)c2C)c(=O)[nH]1 [oxythiamine, Oxythiamine] | – | Ki (pyruvate dehydrogenase; oxythiamine diphosphate ester, read-out: KI against the normal cofactor TPP): 70 nM
5 | CNC(=O)c1cc(Oc2ccc(NC(=O)Nc3ccc(Cl)c(C(F)(F)F)c3)cc2)ccn1 [sorafenib] | 17% | –
6 | VEGF-TRAP: comparator named for tumor inhibition | 22% | –
